The values below come from patent US11999746B2, “Compounds” (GlaxoSmithKline Intellectual Property Development Limited, priority 2014, dated 2024).

The target in experiment [1] is T1, recombinant human Lp-PLA2 (Homo sapiens, UniProt Q13093).
T1 sequence (Q13093 22-441): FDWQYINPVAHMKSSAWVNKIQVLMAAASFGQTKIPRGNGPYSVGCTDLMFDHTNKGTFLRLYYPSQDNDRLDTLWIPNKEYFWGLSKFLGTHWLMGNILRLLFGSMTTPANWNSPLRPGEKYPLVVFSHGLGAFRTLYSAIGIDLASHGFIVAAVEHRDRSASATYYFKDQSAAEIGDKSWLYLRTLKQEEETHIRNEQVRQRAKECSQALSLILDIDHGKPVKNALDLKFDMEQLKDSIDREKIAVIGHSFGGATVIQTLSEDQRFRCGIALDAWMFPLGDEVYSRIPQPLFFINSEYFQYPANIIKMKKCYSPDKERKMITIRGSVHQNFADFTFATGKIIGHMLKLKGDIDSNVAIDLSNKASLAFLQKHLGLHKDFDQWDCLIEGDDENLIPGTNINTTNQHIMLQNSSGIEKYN
In words: (1b) hrThioPAF assay, recombinant human Lp-PLA2. The settings on record: Examples 266-412 were tested here, one experiment or average of multiple experiments, read-out: rhLp-PLA2 (pIC50) (converted). It counts as biochemical. In outline:
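Fluorogenic assay: 20 pM rhLp-PLA2 in 50 mM HEPES pH 7.4, 150 mM NaCl, 1 mM CHAPS with 1:3 serially diluted compounds; substrate mix of 40 μM 2-thio-PAF, 40 μM CPM, 400 μM NEM (pre-addition levels). 20 min at 25 °C in the dark; fluorescence ex 380/em 485 nm, pIC50 by curve fitting.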

The target of a further experiment is T2, Lp-PLA2 in human plasma (Homo sapiens, UniProt Q13093).
T2 construct: from tissue; host or cells: pooled human plasma
T2 sequence (Q13093 22-441): T1 sequence (Q13093 22-441)
The experiment can be described thus: (3b) Lp-PLA2 human plasma alternative Thio-PAF assay. It counts as biochemical. Conditions: (3b) alternative Thio-PAF assay, pooled human plasma; Examples of 266-412 were tested here; read-out: pIC50 in the Lp-PLA2 human plasma assay (converted). On the procedure:
(3b) Alternative Thio-PAF Assay
The human plasma assay utilizes the same thioester analog of PAF as described in (1b) “hr ThioPAF” assay. This assay may detect the activity of Lp-PLA2 in human plasma, as determined by specific inhibition by Lp-PLA2 inhibitors.
The thio-PAF assay was run as a quenched 20 μL assay. Compounds source plate was prepared by making 1:3 (by volume) serial dilution of the compounds into pure DMSO on 96-well microplate. 5 μL of compounds on compound source plate were transferred to 96-well Corning 3686 (black) low-volume plates by STAR+(Hamilton) liquid dispenser. 10 μL pooled human plasma, which was previously aliquoted and frozen, was added. Plates were centrifuged for 30 sec at 1000 rpm. After 15 minutes preincubation at room temperature, 5 μL of substrate solution comprising 2 mM 2-thio-PAF [from ethanol stock], 52 μM CPM [from a DMSO stock] and 2.5 mM NEM (N-ethylmaleimide) [made fresh daily in DMSO] in assay buffer (50 mM HEPES, pH 7.4, 150 mM NaCl, 1 mM CHAPS) was added to 96-well Corning 3686 (black) low-volume plates. After 3 mins, reaction was quenched with 10 μL of 5% aqueous trifluoroacetic acid (TFA). Plates were centrifuged 30 sec at 1000 rpm, covered to protect from light and incubated for 10 min at room temperature. Plates were read at ex: 380 nm/em: 485 nm using Envision plate reader (Perkin Elmer). Raw data were transferred to Excel software and pIC50 data, curve and QC analysis was conducted by using XL fit module in Excel.

SMILES strings stand for the structures. Counter-ions that a name gives are not always drawn. A value given as a limit tells only on which side of the number the result lay.

As for `N[C@H]1C[C@H]2Cn3c(cc(OCc4cc(F)c(Oc5ccnc(C(F)(F)F)c5)c(F)c4)nc3=O)N2C1` [Example E390, (7S,8aS)-7-Amino-3-((3,5-difluoro-4-((2-(trifluoromethyl)pyridin-4-yl)oxy)benzyl)oxy)-7,8,8a,9-tetrahydropyrrolo[1′,2′:3,4]imidazo[1,2-c]pyrimidin-1(6H)-one], the IC50 in experiment [1] is not above 10 µM; at Lp-PLA2 in human plasma, not above 100 nM.
Take `N[C@@H]1C[C@H]2Cn3c(cc(OCc4cc(F)c(Oc5ccnc(C(F)(F)F)c5)c(F)c4)nc3=O)N2C1` [Example E392, (7R,8aS)-7-Amino-3-((3,5-difluoro-4-((2-(trifluoromethyl)pyridin-4-yl)oxy)benzyl)oxy)-7,8,8a,9-tetrahydropyrrolo[1′,2′:3,4]imidazo[1,2-c]pyrimidin-1(6H)-one]: the values for the IC50 (in experiment [1]; at Lp-PLA2 in human plasma) were not above 10 µM and not above 100 nM, respectively.
In the case of `CCOC(=O)N1CCN2c3cc(OCc4ccc(F)c(F)c4)nc(=O)n3CC2C1` (stereo not shown) [Example E306, Ethyl 7-((3,4-difluorobenzyl)oxy)-9-oxo-3,4,11,11a-tetrahydro-1H-pyrazino[1′,2′:3,4]imidazo[1,2-c]pyrimidine-2(9H)-carboxylate], the IC50 in experiment [1] is not above 10 µM; on Lp-PLA2 in human plasma, not above 100 nM.
On to `N[C@H]1C[C@@H]2Cn3c(cc(OCc4cc(F)c(Oc5ccnc(C(F)(F)F)c5)c(F)c4)nc3=O)N2C1` [Example E388, (7S,8aR)-7-Amino-3-((3,5-difluoro-4-((2-(trifluoromethyl)pyridin-4-yl)oxy)benzyl)oxy)-7,8,8a,9-tetrahydropyrrolo[1′,2′:3,4]imidazo[1,2-c]pyrimidin-1(6H)-one], for which the figures for the IC50 (in experiment [1]; on Lp-PLA2 in human plasma) were not above 0.001 µM and not above 100 nM, respectively.
Taken in the same sequence, the figures for `CC(C)C(=O)N1CCN2c3cc(OCc4ccc(F)c(C#N)c4)nc(=O)n3CC2C1` (stereo not shown) [Example E290, 2-Fluoro-5-(((2-isobutyryl-9-oxo-2,3,4,9,11,11a-hexahydro-1H-pyrazino[1′,2′:3,4]imidazo[1,2-c]pyrimidin-7-yl)oxy)methyl)benzonitrile 2,2,2-trifluoroacetate] were not above 10 µM and not above 100 nM.
For the compound `CN1CC2Cn3c(cc(OCc4ccc(F)c(F)c4)nc3=O)N2CC1=O` (stereo not shown) [Example E359, 7-((3,4-Difluorobenzyl)oxy)-2-methyl-11,11a-dihydro-1H-pyrazino[1,2′:3,4]imidazo[1,2-c]pyrimidine-3,9(2H,4H)-dione], the values for the IC50 (in experiment [1]; at Lp-PLA2 in human plasma) were not above 10 µM and not above 100 nM, respectively.
For `CN(C)C(=O)N1CCN2c3cc(OCc4ccc(F)c(F)c4)nc(=O)n3CC2C1` (stereo not shown) [Example E301, 7-((3,4-Difluorobenzyl)oxy)-N,N-dimethyl-9-oxo-3,4,11,11a-tetrahydro-1H-pyrazino[1′,2′:3,4]imidazo[1,2-c]pyrimidine-2(9H)-carboxamide] the same measures were not above 10 µM and not above 100 nM.
For `O=C(O)C(F)(F)F.[2H]C1([2H])C2CNCCN2c2cc(OCc3ccc(F)c(C#N)c3)nc(=O)n21` (stereo not shown) [Example E269, 5-(((11,11-Dideutero-9-oxo-2,3,4,9,11,11a-hexahydro-1H-pyrazino[1′,2′:3,4]imidazo [1,2-c]pyrimidin-7-yl)oxy)methyl)-2-fluorobenzonitrile 2,2,2-trifluoroacetate], the figures for the IC50 (in experiment [1]; at Lp-PLA2 in human plasma) were not above 10 µM and not above 100 nM, respectively.
Take `CN1CC2Cn3c(cc(OCc4ccc(F)c(C#N)c4)nc3=O)N2CC1=O` (stereo not shown) [Example E357, 2-Fluoro-5-(((2-methyl-3,9-dioxo-2,3,4,9,11,11a-hexahydro-1H-pyrazino[1,2′:3,4]imidazo[1,2-c]pyrimidin-7-yl)oxy)methyl)benzonitrile]: the IC50 in experiment [1] is not above 10 µM; on Lp-PLA2 in human plasma it was not above 100 nM.
For `N#Cc1cc(COc2cc3n(c(=O)n2)CC2CNCCN32)ccc1F` (stereo not shown) [Example E266, 2-Fluoro-5-(((9-oxo-2,3,4,9,11,11a-hexahydro-1H-pyrazino[1′,2′:3,4]imidazo[1,2-c]pyrimidin-7-yl)oxy)methyl)benzonitrile] the same measures were not above 0.1 µM and not above 100 nM.
Take `CC(C)OC(=O)N1CCN2c3cc(OCc4ccc(F)c(F)c4)nc(=O)n3CC2C1` (stereo not shown) [Example E307, Isopropyl 7-((3,4-difluorobenzyl)oxy)-9-oxo-3,4,11,11a-tetrahydro-1H-pyrazino[1′,2′:3,4]imidazo[1,2-c]pyrimidine-2(9H)-carboxylate]: the IC50 in experiment [1] was not above 10 µM; on Lp-PLA2 in human plasma, not above 100 nM.
For `[2H]C1([2H])C2CN(S(C)(=O)=O)CCN2c2cc(OCc3ccc(F)c(C#N)c3)nc(=O)n21` (stereo not shown) [Example E287, 5-(((11,11-Dideutero-2-(methylsulfonyl)-9-oxo-2,3,4,9,11,11a-hexahydro-1H-pyrazino[1′,2′:3,4]imidazo[1,2-c]pyrimidin-7-yl)oxy)methyl)-2-fluorobenzonitrile], the values for the IC50 (in experiment [1]; at Lp-PLA2 in human plasma) were not above 10 µM and not above 100 nM, respectively.
For the compound `N#Cc1cc(COc2cc3n(c(=O)n2)CC2CN(CC(=O)O)CCN32)ccc1F` (stereo not shown) [Example E324, 2-(7-((3-Cyano-4-fluorobenzyl)oxy)-9-oxo-3,4,11,11a-tetrahydro-1H-pyrazino[1,2′:3,4]imidazo[1,2-c]pyrimidin-2(9H)-yl)acetic acid, trifluoroacetic acid Salt], the IC50 is not above 10 µM in experiment [1] and not above 100 nM at Lp-PLA2 in human plasma.
With `N#Cc1cc(COc2cc3n(c(=O)n2)C[C@H]2C[C@H](N)CN32)ccc1F` [Example E386, 5-((((7S,8aR)-7-Amino-1-oxo-1,6,7,8,8a,9-hexahydropyrrolo[1,2′:3,4]imidazo[1,2-c]pyrimidin-3-yl)oxy)methyl)-2-fluorobenzonitrile], the values for the IC50 (in experiment [1]; at Lp-PLA2 in human plasma) were not above 10 µM and not above 100 nM, respectively.
With `Cc1ccc(Oc2c(F)cc(COc3cc4n(c(=O)n3)CC3(COC3)N4)cc2F)cn1` [Example E394, 7-((3,5-Difluoro-4-((6-methylpyridin-3-yl)oxy)benzyl)oxy)-1H-spiro[imidazo[1,2-c]pyrimidine-2,3′-oxetan]-5(3H)-one], the IC50 in experiment [1] is not above 10 µM; at Lp-PLA2 in human plasma it was not above 100 nM.
On to `N#Cc1cc(COc2cc3n(c(=O)n2)CC2CN(S(=O)(=O)C4CC4)CCN32)ccc1F` (stereo not shown) [Example E296, 5-(((2-(Cyclopropylsulfonyl)-9-oxo-2,3,4,9,11,11a-hexahydro-1H-pyrazino[1′,2′:3,4]imidazo[1,2-c]pyrimidin-7-yl)oxy)methyl)-2-fluorobenzonitrile 2,2,2-trifluoroacetate], for which the IC50 in experiment [1] was not above 10 µM; on Lp-PLA2 in human plasma, not above 100 nM.
For the compound `CN1c2cc(OCc3ccc(F)c(F)c3)nc(=O)n2CC12COC2` [Example 398, 7-((3,4-Difluorobenzyl)oxy)-1-methyl-1H-spiro[imidazo[1,2-c]pyrimidine-2,3′-oxetan]-5(3H)-one], the IC50 in experiment [1] is not above 10 µM; at Lp-PLA2 in human plasma, not above 100 nM.
As for `CC(C)(N)CC(=O)N1CCN2c3cc(OCc4ccc(F)c(C#N)c4)nc(=O)n3CC2C1` (stereo not shown) [Example E298, 5-(((2-(3-Amino-3-methylbutanoyl)-9-oxo-2,3,4,9,11,11a-hexahydro-1H-pyrazino[1′,2′:3,4]imidazo[1,2-c]pyrimidin-7-yl)oxy)methyl)-2-fluorobenzonitrile 2,2,2-trifluoroacetate], the IC50 in experiment [1] was not above 10 µM; at Lp-PLA2 in human plasma it was not above 100 nM.
Taken in the same sequence, the figures for `CC(C)CC(=O)N1CCN2c3cc(OCc4ccc(F)c(C#N)c4)nc(=O)n3CC2C1` (stereo not shown) [Example E293, 2-Fluoro-5-(((2-(3-methylbutanoyl)-9-oxo-2,3,4,9,11,11a-hexahydro-1H pyrazino[1′,2′:3,4]imidazo[1,2-c]pyrimidin-7-yl)oxy)methyl)benzonitrile] were not above 10 µM and not above 100 nM.
For `N#Cc1cc(COc2cc3n(c(=O)n2)CC2CNC(=O)CN32)ccc1F` (stereo not shown) [Example E349, 5-(((3,9-Dioxo-2,3,4,9,11,11a-hexahydro-1H-pyrazino[1′,2′:3,4]imidazo[1,2-c]pyrimidin-7-yl)oxy)methyl)-2-fluorobenzonitrile], the IC50 in experiment [1] is not above 10 µM; on Lp-PLA2 in human plasma, not above 100 nM.
